Laboratory results: patent US20080260659A1, “Compositions” (GIVAUDAN SA, priority 2005, published 2008)

Key:
Format in all cases: cell-based
[1] = system: Aspergillus niger ATCC 16404 spores; assay: Sporicidal effect of test compounds in water; conditions: 0.1% test compound, 7 days
Experimental: Aspergillus niger ATCC 16404 spores are added to water to obtain a density of 3×10^5 spores 1 ml. In order to prepare the spores, the test strain is grown for 5 days on potato dextrose agar at room temperature. The spores are harvested with a solution containing 0.1% Tween 80, peptone 0.1% and NaCl 0.85% and the spore concentration is adjusted to the density indicated above.
Test compounds are dissolved in dipropyleneglycol to a concentration of 20%.
These stock solutions are added to 10 ml aliquots of the spore suspension to obtain a final concentration of the test compounds of 0.1%. The sporicidal effect is shown by a reduction of spore counts after 7 days.
The reduction factor is determined as follows. Aliquots of the above prepared suspension of microorganisms (here: spore suspension prepared as described above) are plated on a suitable agar medium (see above) and the developing colonies are counted both for samples with test compound and for a negative probe (water). The count of the negative control is divided by the count of the test compound and thereby the reduction factor is determined. A negative control (water) accordingly has a reduction factor of 1 (no effect on the microorganism).

[2] = system: Staphylococcus aureus (DSMZ 799) and Pseudomonas aeruginosa (ATCC 15442); assay: Bactericidal effect in a cosmetic cream (mixed inoculum 1:1); conditions: cosmetic cream pH 5,5; 0.1% 4-hydroxybenzaldehyde, no parabens
Experimental: (§1) A cosmetic cream (pH 5,5) for application to the human skin is formulated as follows (in % w/w): […]
(§2) Glyceryl-monostearate, Sweet almond oil, Cetyl-stearyl-alcohol and Glyceryl dilaurate are melted at 80° C. Xanthan gum is dispersed into glycerine. Arginine is dissolved in water and heated to 75° C. The Xanthan gum—glycerin suspension is added to the heated water phase, the heated oil phase is added and the suspension is stirred at 300 rpm for 10 min whilst being cooled down slowly. Finally, a homogeneous emulsion is made with a high speed homogenizer at 5000 rpm.
(§3) Test samples of cream contain different amounts of preservatives and/or preservative enhancer. The preservative and preservative enhancer is added to an aliquot of 10 g of the cream in 50 ml tubes in a concentration as shown in the table below. After addition of the preservative/preservative enhancer, the cream is thoroughly mixed to achieve a homogeneous distribution.
After 1-3 days of equilibration of the cream (storage at room temperature to achieve a homogenous partitioning of compounds between oil and water phase), […]
Aliquots of these suspended and diluted samples are plated on tryptic soy agar supplemented with 0.5% Tween 80 and then incubated for 24 h at 37° C. Surviving bacteria are counted.
(§4) The count of the negative control is divided by the count of the probe and thereby the reduction factor is determined. […]

[3] = system: Aspergillus niger ATCC 16404 spores; assay: Sporicidal effect in a cosmetic cream; conditions: cosmetic cream pH 5,5; 0.1% 4-hydroxybenzaldehyde, no parabens
Experimental: as §1, §2
as §3, with “distribution. […]” for “distribution.”
After regular test intervals, samples of 1 g cream are removed and added to 20 ml of a neutralizer solution containing 0.2% lecithin, 2% Tween 80 and 0.5% NaCl. […] After 48 h to 72 h the number of surviving colony forming units (and therefore surviving spores) are counted.
as §4

Structure (SMILES) | Sporicidal effect / reduction of spore counts [1] | reduction factor 24 h bacteria [2] | reduction factor 7 d fungal spores [3]
O=Cc1ccc(O)cc1 [4-hydroxybenzaldehyde] | No significant reduction of spore counts | 1 | 1
COc1ccc(C=O)cc1 [4-methoxy-benzaldehyde] | No significant reduction of spore counts | – | –
C=CCCCCCCCCO [9-decenol, reference compound] | significant sporicidal effect | – | –
CC(CC=O)CCc1ccccc1 (stereo not drawn) [Mefranal, 3-methyl-5-phenylpentanal, reference compound] | significant sporicidal effect | – | –
